Values of other authors, collected in patent US4461765A (Shionogi & Co., Ltd., priority 1979, dated 1984).
In brackets after ≈: the same amount, converted by molar mass.

Conditions: co-trimoxazol SMX:TMP 5:1; oral or intravenous administration

SMILES: COc1cc(Cc2cnc(N)nc2N)cc(OC)c1OC [TMP, trimethoprim]
- minimum inhibition concentration in the blood level: 0.6 µg/mL (≈ 2.07 µM)
